Laboratory results: patent US20230331803A1, “CO-AGONISTS OF THE GLP-1 AND AMYLIN RECEPTORS” (priority 2020, published 2023)
Read-outs that look alike come from different tables or passages of the source. Starred links: 1 amine or outer side, 2 acyl side, 3 side chain; linkers in the order of their positions; H or OH if unused. Non-standard residues stand in square brackets, D forms with d. Groups on a side chain read outwards from the residue. *: point of attachment. Decanoyl(10-(4-HOOC-PhO)) = O=C(O)c1ccc(OCCCCCCCCCC(=O)*)cc1; C20 diacid = O=C(O)CCCCCCCCCCCCCCCCCCC(=O)*; C16 diacid = O=C(O)CCCCCCCCCCCCCCC(=O)*; γGlu = O=C(O)[C@H](CCC(=O)[*:2])N[*:1]; εLys = N[C@@H](CCCCN[*:1])C(=O)[*:2]; Trx = NC[C@H]1CC[C@H](C(=O)O)CC1; AEEA = NCCOCCOCC(=O)O; Aib = CC(C)(N)C(=O)O; Ahx = NCCCCCC(=O)O

Columns and labels:
human GLP-1 receptor = target: T1, human GLP-1 receptor (Homo sapiens, UniProt P43220); assay: Human GLP-1 receptor in vitro potency assay (CRE-luciferase reporter, BHK cells); type: cell-based
T1 construct: expressed in transfected cells; host or cells: BHK (Baby Hamster Kidney) cells, clone BHK 467-12A KZ-10, stably transfected, with CRE-luciferase reporter
Protocol: It is thus possible to measure GLP-1 receptor activity using a CRE-luciferase reporter gene introduced into Baby Hamster Kidney (BHK) cells co-expressing the GLP-1 receptor.
(§1) Cells were aliquoted and stored at -180° C. until use.
Plates were sealed and incubated at room temperature with gentle shaking for 30 minutes while protected from light. Luminescence was detected on a luminescence plate reader e.g. a Synergy 2 (BioTek).

[1] = target: T2, human amylin receptor (hAmyR3) (Homo sapiens, UniProt O60896+P30988); assay: Human amylin receptor in vitro potency assay (CRE-luciferase reporter, BHK cells); type: cell-based;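 note: BHK cells expressing human calcitonin receptor plus RAMP3 (amylin-3 receptor) with a CRE-luciferase reporter, agonist activity read as luminescence from cAMP-driven transcription, 7-point serial dilutions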
T2 construct: host or cells: BHK cells (Hollex-1 line: human calcitonin receptor (a) + CRE-Luc), further transfected with human RAMP3
Excerpt: Activation of hAmyR3 leads to increased cellular concentrations of cAMP. Consequently, transcription is activated by promotors containing multiple copies of the cAMP response element (CRE). It is thus possible to measure hAmyR3 activity using a CRE-luciferase reporter gene introduced into Baby Hamster Kidney (BHK) cells co-expressing the hAmyR3.
The cell line was further transfected with human receptor modifying protein 3 (RAMP3) using standard methods. This turns the human calcitonin receptor into a human amylin-3(a) receptor.
as §1
The plate was incubated over night at 37° C. in 5% CO2. On the day of the assay, cells were washed three times in assay buffer. Serial dilutions (7-fold dilutions, 7 concentrations pr. compound and one well containing only assay buffer) of comparator compounds and GLP-1 receptor-amylin receptor co-agonists were performed in assay buffer often starting from approximately 10-100 nM in 96-well plates and 30 µL of each concentration added to the 384-well assay plate with cells. […] The assay plate was sealed, incubated at room temperature with gentle shaking for 5 minutes followed by 30 minutes incubation without shaking while protected from light. Luminescence was detected on a luminescence plate reader e.g. a Synergy 2 (BioTek).

[2] = Pharmacokinetic studies in Beagle dogs after oral administration of SNAC-based tablets; type: in vivo; conditions: for Tmax / half-life: male, Beagle
Protocol: To be able to evaluate oral exposure following tablet dosing, tablet compositions comprising the test substance and SNAC (sodium N-(8-(2-hydroxybenzoyl)amino)caprylate) were prepared by mixing test substance with roller compacted SNAC and magnesium stearate as, e.g., described in WO 2019/149880. The amount of SNAC in the tablet composition was 100-300 mg, the amount of magnesium stearate in the tablet composition was 7.7 mg, and the target amount of each test substance in the tablet composition was 3-4 mg.
Pharmacokinetic (PK) studies in Beagle dogs were conducted to determine the exposure of the GLP-1 receptor-amylin receptor co-agonist after peroral administration.
For the pharmacokinetic studies male Beagle dogs were used, 2-7, or 1 to 5, years of age and weighing approximately 10-15, such as 10-12, kg at the start of the studies. The dogs were group housed in pens (12 hours light: 12 hours dark),and fed individually and restrictedly once daily with Royal Canin Medium Adult dog (Royal Canin Products, China Branch, or Brogaarden A/S, Denmark). Exercise and group social were permitted daily, whenever possible. The dogs were used for repeated pharmacokinetic studies with a suitable wash-out period between successive dosing. An appropriate acclimatisation period was given prior to initiation of the first pharmacokinetic study. All handling, dosing and blood sampling of the animals were performed by trained and skilled staff. Before the studies the dogs were fasted overnight and from 0 to 4 h after dosing. Besides, the dogs were restricted to water 1 hour before dosing until 4 hours after dosing, but otherwise have ad libitum access to water during the whole period.
The tablets used for the p.o. studies described herein were immediate release SNAC-based tablets dosed orally.
The tablets were administered in the following manner: 10 min prior to tablet administration the dogs may be dosed subcutaneously with approximately 3 nmol/kg of SEQ ID NO: 237, tablets were placed in the back of the mouth of the dog to prevent chewing. The mouth was then closed, and 10 mL of tap water was given by a syringe or gavage to facilitate swallowing of the tablet.
Blood was sampled at predefined time points for up till 240 hours, such as up till 10 hr, post dosing to adequately cover the full plasma concentration-time absorption profile of the GLP-1 agonist.
For each blood sampling time point approximately 0.8 mL of whole blood was collected in a 1.5 mL EDTA coated tube, and the tube was gently turned to allowing mixing of the sample with the EDTA. Blood samples (for example 0.8 mL) were collected in EDTA buffer (8 mM) and then centrifuged at 4° C. and 2000 G for 10 minutes. Plasma was pipetted into Micronic tubes on dry ice, and kept at -20° C. until analysis.
Blood samples were taken as appropriate, for example from a venflon in the cephalic vein in the front leg for the first 2 hours and then with syringe from the jugular vein for the rest of the time points (the first few drops were allowed to drain from the venflon to avoid heparin saline from the venflon in the sample).
Plasma concentration of the GLP-1 receptor-amylin receptor co-agonists were determined using LCMS. Individual plasma concentration-time profiles were analysed by a non-compartmental model in WinNonlin v. 5.0 or Phoenix v. 6.2 or 6.3 (Pharsight Inc., Mountain View, CA, USA), or other relevant software for PK analysis.
The individual plasma concentration-time profiles were analysed by non-compartmental analysis (NCA).

[3] = dogs, oral administration (tablet)
[4] = dog, in vivo, dogs, oral administration (tablet), read-out: Tmax
[5] = dog, in vivo, dogs, oral administration (tablet), read-out: T½ (converted)
[6] = Table 4a, BHK cells expressing human GLP-1R, CRE-Luc, 3 hours, read-out: Human GLP-1R potency [EC50 (pM)]
[7] = Table 4a, BHK hAmyR3/CRE-Luc cells, 3 hours, read-out: Human AmyR3 potency [EC50 (pM)]

T2 sequence (P30988 25-474): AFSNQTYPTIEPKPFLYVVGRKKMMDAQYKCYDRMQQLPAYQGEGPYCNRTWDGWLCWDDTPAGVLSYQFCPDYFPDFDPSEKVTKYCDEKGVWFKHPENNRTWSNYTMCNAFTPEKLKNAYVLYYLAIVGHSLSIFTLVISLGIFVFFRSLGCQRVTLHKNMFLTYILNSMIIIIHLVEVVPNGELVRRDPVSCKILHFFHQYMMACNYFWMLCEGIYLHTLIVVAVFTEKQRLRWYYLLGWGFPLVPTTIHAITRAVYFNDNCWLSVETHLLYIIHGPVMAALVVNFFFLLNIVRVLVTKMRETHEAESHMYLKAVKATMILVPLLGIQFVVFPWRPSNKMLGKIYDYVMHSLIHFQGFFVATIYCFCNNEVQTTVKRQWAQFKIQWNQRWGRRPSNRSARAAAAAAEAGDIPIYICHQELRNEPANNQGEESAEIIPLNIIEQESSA
T2 sequence (O60896 24-148): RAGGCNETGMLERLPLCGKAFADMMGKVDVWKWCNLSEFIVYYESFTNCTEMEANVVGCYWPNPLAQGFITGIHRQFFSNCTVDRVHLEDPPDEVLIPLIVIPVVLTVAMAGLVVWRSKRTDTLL
T1 sequence (P43220 24-463): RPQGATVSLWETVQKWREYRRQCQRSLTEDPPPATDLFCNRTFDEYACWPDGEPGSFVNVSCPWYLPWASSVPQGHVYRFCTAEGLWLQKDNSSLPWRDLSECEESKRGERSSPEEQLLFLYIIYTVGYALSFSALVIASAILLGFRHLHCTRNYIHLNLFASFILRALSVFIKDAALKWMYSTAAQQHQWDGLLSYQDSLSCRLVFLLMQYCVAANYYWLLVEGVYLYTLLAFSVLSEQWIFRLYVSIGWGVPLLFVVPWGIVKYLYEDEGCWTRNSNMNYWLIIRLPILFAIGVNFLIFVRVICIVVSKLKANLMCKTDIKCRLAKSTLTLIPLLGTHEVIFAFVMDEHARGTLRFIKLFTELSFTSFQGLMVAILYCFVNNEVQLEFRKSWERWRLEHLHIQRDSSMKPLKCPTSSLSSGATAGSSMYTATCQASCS

EC50 (human GLP-1 receptor; [6]) [pM] | EC50 [1, 7] [pM] | AUC/D ([2]; dog, in vivo, po) [kg·h/L] | Cmax/D ([2]; dog, in vivo, po) [kg/L] | Tmax ([2]; dog, in vivo, po, Tmax (hr)) [h] | half-life ([2]; dog, in vivo, po, T½ (hr)) [h] | Compound | EC50 (human GLP-1 receptor) [pM] | EC50 [1] [pM] | AUC/D [2, 3] [kg·h/L] | Cmax/D [2, 3] [kg/L] | Tmax [2, 4] [h] | half-life [2, 5] [h]
 |  |  |  |  |  | CC[C@H](C)[C@H](NC(=O)[C@H](Cc1ccccc1)NC(=O)[C@H](CCC(=O)O)NC(=O)[C@H](CCCNC(=N)N)NC(=O)[C@H](C)NC(=O)[C@H](C)NC(=O)[C@H](CCC(N)=O)NC(=O)[C@H](CCC(=O)O)NC(=O)[C@H](CCC(=O)O)NC(=O)[C@H](CC(C)C)NC(=O)[C@H](Cc1ccc(O)cc1)NC(=O)[C@H](CO)NC(=O)[C@H](CO)NC(=O)[C@H](CCCCNC(=O)COCCOCCNC(=O)COCCOCCNC(=O)CC[C@H](NC(=O)[C@H]1CC[C@H](CNC(=O)CCCCCCCCCCCCCCCCCCC(=O)O)CC1)C(=O)O)NC(=O)[C@H](CC(=O)O)NC(=O)[C@H](CO)NC(=O)[C@@H](NC(=O)[C@H](Cc1ccccc1)NC(=O)[C@@H](NC(=O)CNC(=O)[C@H](CCC(=O)O)NC(=O)[C@H](C)NC(=O)[C@@H](N)Cc1c[nH]cn1)[C@@H](C)O)[C@@H](C)O)C(=O)N[C@@H](CCC(=O)O)C(=O)N[C@@H](Cc1c[nH]c2ccccc12)C(=O)N[C@@H](CC(C)C)C(=O)N[C@H](C(=O)N[C@@H](CCCNC(=N)N)C(=O)NCC(=O)N[C@@H](CCCNC(=N)N)C(=O)NCC(=O)N[C@@H](CCC(=O)O)C(=O)N[C@@H](C)C(=O)N[C@@H](CO)C(=O)N[C@@H](CCC(=O)O)C(=O)N[C@@H](CC(C)C)C(=O)N[C@@H](CO)C(=O)N[C@H](C(=O)N[C@@H](C)C(=O)N[C@@H](C)C(=O)N[C@@H](CC(C)C)C(=O)NCC(=O)N[C@@H](CCCNC(=N)N)C(=O)N[C@@H](CC(C)C)C(=O)N[C@@H](CO)C(=O)N[C@@H](C)C(=O)N[C@@H](CCC(=O)O)C(=O)N[C@@H](CC(C)C)C(=O)N[C@@H](Cc1c[nH]cn1)C(=O)N[C@@H](CCC(=O)O)C(=O)N[C@@H](CC(C)C)C(=O)N[C@@H](C)C(=O)N[C@H](C(=O)N[C@@H](CC(C)C)C(=O)N1CCC[C@H]1C(=O)N[C@@H](CCCNC(=N)N)C(=O)N[C@H](C(=O)N[C@@H](CCC(=O)O)C(=O)N[C@H](C(=O)NCC(=O)N[C@@H](CO)C(=O)NCC(=O)N[C@@H](CO)C(=O)N1CCC[C@H]1C(N)=O)[C@@H](C)O)[C@@H](C)O)[C@@H](C)O)[C@@H](C)O)C(C)C [Compound 0431] | 10.9 | 11.9 | 9.75 | 0.29 | 1.5 | 34
 |  |  |  |  |  | H-HWEGTFTSDVSSYLEEQAAREFIEWLVRGK([AEEA-AEEA-γGlu-Decanoyl(10-(4-HOOC-PhO))])GEGGGGGASELSTAALGRLSAELHELK([AEEA-AEEA-γGlu-Decanoyl(10-(4-HOOC-PhO))])TLPRTETGSGSP-NH2 [Compound 0234] | 38.9 | 38.4 | 8.00 | 0.35 | 1 | 31
 |  |  |  |  |  | H-HWEGTFTSDVSSYLEEQAAREFIEWLVRGK([AEEA-AEEA-γGlu-Decanoyl(10-(4-HOOC-PhO))])GEGGGGGASELSTAALGRLSK([AEEA-AEEA-γGlu-Decanoyl(10-(4-HOOC-PhO))])ELHELATLPRTETGSGSP-NH2 [Compound 0233] | 46.4 | 182 | 8.43 | 0.3 | 1.5 | 43
12 | 33.8 | 65.29 | 0.72 | 2 | 110 | H-H[Aib]EGTFTSDK([AEEA-AEEA-γGlu-C16 diacid])SSYLEEQAAREFIAWLVRGRGGGGGASELSTAALGRLSK([AEEA-AEEA-γGlu-C16 diacid])ELHELATLPRTETGSGSP-NH2 [Compound 0292] |  |  |  |  |  | 
15.8 | 12 | 31.73 | 0.48 | 1.5 | 97 | H-H[Aib]EGTFTSDK([AEEA-AEEA-γGlu-C16 diacid])SSYLEEQAAREFIAWLVRGRGGGGGEASELSTAALGRLSAELHK([AEEA-AEEA-γGlu-C16 diacid])LATLPRTETGSGSP-NH2 [Compound 0259] |  |  |  |  |  | 
3.8 | 22 | 37.01 | 0.5 | 1.5 | 107 | H-H[Aib]EGTFTSDVSK([AEEA-AEEA-γGlu-C16 diacid])YLEEQAAREFIAWLVRGRK([AEEA-AEEA-γGlu-C16 diacid])GGGGEASELSTAALGRLSAELHELATLPRTETGSGSP-NH2 [Compound 0528] |  |  |  |  |  | 
2.5 | 26.9 | 30.60 | 0.39 | 1.3 | 90 | H-H[Aib]EGTFTSDVSK([AEEA-AEEA-γGlu-C16 diacid])YLEEQAARK([AEEA-AEEA-γGlu-C16 diacid])FIAWLVRGRQEASELSTAALGRLSAELHELATLPRTETGSGSP-NH2 [Compound 0578] |  |  |  |  |  | 
5.6 | 8.3 | 27.60 | 0.34 | 1.5 | 91 | H-H[Aib]EGTFTSDVSK([AEEA-AEEA-γGlu-C16 diacid])YLEEQAARK([AEEA-AEEA-γGlu-C16 diacid])FIAWLVRGRQEGGGGGASELSTAALGRLSAELHELATLPRTETGSGSP-NH2 [Compound 0575] |  |  |  |  |  | 
5.6 | 19.1 | 37.60 | 0.45 | 1.3 | 93 | H-H[Aib]EGTFTSDVSK([AEEA-AEEA-γGlu-C16 diacid])YLEEQAARK([AEEA-AEEA-γGlu-C16 diacid])FIEWLVRGRGEASELSTAALGRLSAELHELATLPRTETGSGSP-NH2 [Compound 0577] |  |  |  |  |  | 
2.9 | 10.1 | 28.20 | 0.34 | 1.3 | 94 | H-H[Aib]EGTFTSDVSK([AEEA-AEEA-γGlu-C16 diacid])YLEEQAARK([AEEA-AEEA-γGlu-C16 diacid])FIEWLVRGRGEGGGGGASELSTAALGRLSAELHELATLPRTETGSGSP-NH2 [Compound 0576] |  |  |  |  |  | 
7.1 | 110 | 33.33 | 0.53 | 1.5 | 73 | H-H[Aib]EGTFTSDVSK([Ahx-γGlu-γGlu-C16 diacid])YLEEQAARK([Ahx-γGlu-γGlu-C16 diacid])FIEWLVRGAAEASELSTAALGRLSAELHELATLPRTETGSGSP-NH2 [Compound 0630] |  |  |  |  |  | 
6 | 8.1 | 5.68 | 0.16 | 2 | 16 | H-H[Aib]EGTFTSDVSSYLEEK([AEEA-AEEA-γGlu-Trx-C20 diacid])AAREFIAWLVRGRGGGGEASELSTAALGRLSAELHELATLPRTETGSGSP-NH2 [Compound 0265] |  |  |  |  |  | 
15.2 | 12.3 | 15.00 | 0.3 | 1.5 | 35 | H-H[Aib]EGTFTSDVSSYLEEQAAK([εLys-AEEA-AEEA-γGlu-Trx-C20 diacid])EFIEWLVRGRGEASELSTAALGRLSAELHELATLPRTETGSGSP-NH2 [Compound 0436] |  |  |  |  |  | 
